Source: patent US9775883B2, “Methods, systems, and compositions for promoting recovery of peripheral neuropathy” (HENRY FORD HEALTH SYSTEM, priority 2011, dated 2017)

Test: Effect of TB4 on bodyweight of db/db mice
Assay type: in vivo, mouse
Conditions: for Weight: db/db mice, mean ± SE
Method: All experimental procedures were carried out in accordance with NIH Guide for the Care and Use of Laboratory Animals and approved by the institutional Animal Care and Use Committee of Henry Ford Hospital. Male BKS.Cg-m+/+Lepr^db/J(db/db) mice (Jackson Laboratories, Bar Harbor, Me.) aged 20 weeks were used. Age-matched heterozygotes mice (db/m), a non-penetrant genotype (Jackson Laboratories), were used as the control animals.
db/db mice at age 20 weeks were treated with Tβ4 at a dose of 6 mg/kg or 24 mg/kg (RegeneRx, Inc, intraperitoneal injection, i.p.), every 3 days for 4 weeks (n=10/group). db/db mice (n=10/group) at the same age treated with same volume of saline were used as a control group. Age-matched db/m mice treated with Tβ4 (6 mg/kg i.p. every 3 days, n=10/group) or saline (n=10/group) were used as additional control groups. All mice were sacrificed 8 weeks after the initial treatment. Doses of Tβ4 were selected based on published studies^13.

- Weight (TB4 6 mg/kg i.p. every 3 days for 4 weeks, 0 w (before the treatment)): 59.5 ± 0.9 g
- Weight (TB4 6 mg/kg, 2 w): 57.1 ± 1.1 g
- Weight (TB4 6 mg/kg, 4 w): 56.2 ± 1.2 g
- Weight (TB4 6 mg/kg, 6 w): 53.7 ± 1.5 g
- Weight (TB4 6 mg/kg, 8 w): 53.0 ± 1.7 g
- Weight (TB4 24 mg/kg i.p. every 3 days for 4 weeks, 0 w (before the treatment)): 58.9 ± 1.1 g
- Weight (TB4 24 mg/kg, 2 w): 58.1 ± 1.2 g
- Weight (TB4 24 mg/kg, 4 w): 55.7 ± 1.5 g
- Weight (TB4 24 mg/kg, 6 w): 56.0 ± 1.4 g
- Weight (TB4 24 mg/kg, 8 w): 54.8 ± 1.6 g
SMILES: CC[C@H](C)[C@H](NC(=O)[C@H](CCC(=O)O)NC(=O)[C@H](C)NC(=O)[C@H](CCSC)NC(=O)[C@H](CC(=O)O)NC(=O)[C@@H]1CCCN1C(=O)[C@H](CCCCN)NC(=O)[C@H](CC(=O)O)NC(=O)[C@H](CO)NC(C)=O)C(=O)N[C@@H](CCC(=O)O)C(=O)N[C@@H](CCCCN)C(=O)N[C@@H](Cc1ccccc1)C(=O)N[C@@H](CC(=O)O)C(=O)N[C@@H](CCCCN)C(=O)N[C@@H](CO)C(=O)N[C@@H](CCCCN)C(=O)N[C@@H](CC(C)C)C(=O)N[C@@H](CCCCN)C(=O)N[C@@H](CCCCN)C(=O)N[C@H](C(=O)N[C@@H](CCC(=O)O)C(=O)N[C@H](C(=O)N[C@@H](CCC(N)=O)C(=O)N[C@@H](CCC(=O)O)C(=O)N[C@@H](CCCCN)C(=O)N[C@@H](CC(N)=O)C(=O)N1CCC[C@H]1C(=O)N[C@@H](CC(C)C)C(=O)N1CCC[C@H]1C(=O)N[C@@H](CO)C(=O)N[C@@H](CCCCN)C(=O)N[C@@H](CCC(=O)O)C(=O)N[C@H](C(=O)N[C@H](C(=O)N[C@@H](CCC(=O)O)C(=O)N[C@@H](CCC(N)=O)C(=O)N[C@@H](CCC(=O)O)C(=O)N[C@@H](CCCCN)C(=O)N[C@@H](CCC(N)=O)C(=O)N[C@@H](C)C(=O)NCC(=O)N[C@@H](CCC(=O)O)C(=O)N[C@@H](CO)C(=O)O)[C@@H](C)CC)[C@@H](C)O)[C@@H](C)O)[C@@H](C)O [Tβ4, thymosin beta 4]
- animal body weight (db/db mouse treated with Tβ4 (Table 1)): did not significantly alter
